Assay results as given in paper PMC4579270, “Identification and Characterization of an Irreversible Inhibitor of CDK2” (Chemistry & Biology, 2015).
Entries after “also recorded” stand apart in the source; their conditions may differ.

Assays:
[1] = biological target: T1, immobilized CDK2/cyclin A (Homo sapiens, UniProt P24941); assay: SPR kinetics of non-covalent complex; assay type: binding; conditions: 1:1 model, 25 °C
T1 construct: made in house; host or cells: Escherichia coli
From the text: To determine the kinetics of the interactions of NU6310 and NU6300 with immobilized CDK2/cyclin A, the sensor surface was exposed to five different concentrations of each inhibitor for different contact times (Figures 2A and 2B). On these relatively short time scales (compared with the experiment above), the interactions between CDK2 and either NU6300 or NU6310 appeared reversible, since the sensorgrams were well described by a simple 1:1 model and the dissociation was similar irrespective of the contact time. It enabled the estimation of the kinetic constants (kon, koff, KD) for the formation of the non-covalent complex. […] The formation of a covalent complex could not be detected on the time scales of these experiments, and the injection times could not be extended further for practical reasons.
Figure 2 NU6300 Is a Covalent Inhibitor of CDK2 (A and B) SPR sensorgrams for the interaction between immobilized CDK2 and NU6310 and NU6300. (A) The effects of time on the interaction were evaluated by comparing the dissociation rates for the compounds injected at 10 μM for different contact times (30, 60, 120, and 240 s). Sensorgrams are aligned with respect to the start of the dissociation. (B) The determination of rate constants was based on global analysis of a set of sensorgrams recorded for a concentration series (39, 156, 625, 2,500, and 10,000 nM) of the compounds. Theoretical curves of a fitted 1:1 Langmuir interaction model (black) are overlaid on the experimental traces. (C) Phosphorylation of GST-Rb by CDK2/cyclin A. The slower-migrating band is hyperphosphorylated GST-Rb (Phospho-Rb). Time points (in minutes) are shown above. (D) Time-dependent inhibition of CDK2/cyclin A. Activity was measured using the ADP-Glo assay format against a peptide of sequence HHASPRK. Error bars indicate SD of the measurements. See also Figure S1 and Table S1.
The interaction experiments were performed using SPR biosensor technology, with Biacore S51 and T100 instruments, CM5 biosensor chips, and standard reagents (GE Healthcare). Full details can be found in the Supplemental Experimental Procedures. […]
CDK2 was immobilized to activated carboxylated dextran surfaces by amine coupling to give surface densities of 6000-25000 RU. All interaction experiments were performed at 25 °C in 10 mM phosphate pH 7.4, 137 mM NaCl, 3 mM KCl, with addition of 0.05 % Tween 20, 5 % (v/v) DMSO, and at a flow rate of 90 or 30 µL/min. […]
Sensorgrams or extracted report points from reference surfaces and blank injections were subtracted from the raw data prior to data analysis, using Biacore T100 evaluation software 2.0. A 1:1 interaction model was fitted globally to sets of sensorgrams recorded with different contact times and at different inhibitor concentrations in multi-cycle experiments. Kinetic parameters were determined from sensorgrams with 30 s and 60 s contact time. Standard deviations were based on at least 4 measurement series.
CDK2/cyclin A was mixed with a freshly prepared solution of NU6300 to achieve DMSO and inhibitor concentrations of 2% and 2 mM respectively, concentrated by ultrafiltration to a CDK2/cyclin A final concentration of circa 5 mg ml-1, and then crystallized as described (Davies et al., 2002). Briefly, crystals were grown from a mother liquor containing 0.6–0.8 M KCl, 0.9–1.2 M (NH4)2SO4, and 100 mM HEPES (pH 7.0). Sitting drops were set up with a 1:1 ratio of protein to reservoir solution in a total initial volume of 0.5 or 1.0 µl.
Before data collection, crystals were briefly immersed in cryo-protectant (1 M sodium

CDK2-Cyclin A = CDK2-Cyclin A (Homo sapiens, UniProt P24941); assay: Kinase assay against GST-Rb after overnight incubation and dialysis; assay type: biochemical; parameters: made in house; host or cells: Escherichia coli (CDK2 co-expressed with S. cerevisiae CAK1); conditions: wild-type CDK2/cyclin A, overnight with 1 mM inhibitor, dialysed 8 h
Protocol: To confirm the results of the ESI-MS and SPR analysis, CDK2/cyclin A was incubated with either NU6300 or NU6310, then the samples and appropriate controls were dialyzed. The resulting CDK2/cyclin A activity was analyzed in an in vitro kinase assay against a C-terminal fragment of the retinoblastoma protein Rb. After an overnight incubation in the presence of NU6300, CDK2 activity was not recovered after dialysis (Figure 2C). […] The activity of NU6300 was also characterized in an alternative kinase assay format (ADP-Glo;^, Promega) in which covalent inhibition of CDK2/cyclin A was allowed to proceed in a pre-incubation phase and was assessed in a subsequent activity assay, where enzyme and inhibitor were diluted such that the inhibitor was present at 20-fold below its IC50 value. The samples and appropriate controls were incubated for 0, 10, 30, 60, and 120 min, prior to addition of ATP and peptide substrate (sequence HHASPRK, single-letter amino acid code), to initiate the kinase reaction. […]
CDK2/cyclin A (200 µM) was incubated overnight with 1 mM inhibitor or DMSO, and then dialysed for 8 h with regular replacement of dialysis buffer into HEPES-buffered saline (50 mM HEPES, pH 7.5, 250 mM NaCl, 0.02% MTG). […] Reactions were stopped by addition of SDS-PAGE loading buffer and analyzed by SDS-PAGE. […]

SMILES	Kd [1] [µM]	koff [1] [s⁻¹]	kon [1] [M⁻¹ s⁻¹]	CDK2 activity against Rb after incubation with inhibitor and dialysis (CDK2-Cyclin A)
C=CS(=O)(=O)c1ccc(Nc2nc(OCC3CCCCC3)c3nc[nH]c3n2)cc1 [NU6300, 6-(cyclohexylmethoxy)-N-(4-(vinylsulfonyl)phenyl)-9H-purin-2-amine]	1.31 ± 0.18	0.0713 ± 0.0063	54500 ± 7.2e+08	not recovered; also recorded: did not
CCS(=O)(=O)c1ccc(Nc2nc(OCC3CCCCC3)c3nc[nH]c3n2)cc1 [NU6310, 6-(cyclohexylmethoxy)-N-(4-(ethylsulfonyl)phenyl)-9H-purin-2-amine]	0.716 ± 0.012	0.0809 ± 0.007	113000 ± 1e+09	could phosphorylate Rb; also recorded: recovered their activity
